Assay results as given in patent publication US20250034520A1, “INCREASING DEVELOPMENTAL POTENTIAL OF HUMAN PREIMPLANTATION EMBRYOS BY REDUCING GENETIC INSTABILITY, ANEUPLOIDIES AND CHROMOSOMAL MOSAICISM” (THE TRUSTEES OF COLUMBIA UNIVERSITY IN THE CITY OF NEW YORK, priority 2022, published 2025).
“Also recorded” adds a separate entry of the source.

How the values were obtained:
Format in all cases: cell-based
[1] = tested on: mouse zygotes; test: DNA damage foci immunostaining in mouse zygotes/embryos
Experimental: (§1) Embryos, mouse and human, were cultured in Global Total (Life-Global) for the duration of the experiments and with added compounds as outlined below. Incubation in RNA polymerase inhibitors triptolide (1 mM) or alpha amanitin (20 mg/ml) was performed from the 2PN stage (day1) to day3 of human development. Incubation in aphidicolin was performed at 2 mM. […] Mirin was used at a concentration of 50 mM. Olaparib was used to inhibit PARP at a concentration of 10 mM. All experiments were conducted during incubation at 37° C. with 5% CO2 and 19-20% O2. Chemical stock solutions were prepared in DMSO at concentrations at least 1000× higher than the final concentration.
(§2) Mouse oocytes were activated at 1-6 hours post retrieval using 2 mM ionomycin (Sigma Aldrich) in Global Total medium for 5 minutes at 37° C. followed by culture in 10 mM puromycin and 5 mg/ml cytochalasin B for 3 hours, then cytochalasinB only for 2 hours and 10 minutes to prevent second polar body extrusion.
(§3) Following the experimental exposures, mouse and human embryos were fixed in 2% paraformaldehyde (PFA) and 0.25% Triton X-100 in PBS for 10 minutes at room temperature, serially washed in phosphate-buffered solution (PBS) at room temperature, then stored in PBS at 4° C. until staining and imaging. Embryos were placed in 10-20 ml droplets of primary antibody solution within plastic tissue culture dishes covered with mineral oil for 1 hour at room temperature, serially washed (×2) in PBS containing 0.01% Triton X-100 to prevent embryos sticking to oil, then transferred to 10-20 ml secondary antibody solution and Hoechst (dilution 1:500) for 30 minutes. Embryos were then serially washed (×2) and placed in 5 ml droplets of PBS with 0.5% serum albumin in uncoated glass bottom dishes (Mattek) covered with embryo culture oil for imaging. The following primary antibodies were used across experiments as described above: Oct-4, γH2AX, RPA32, RPA32 S4/S8, RPA32 S33, 53BP1, RAD51, Centromere, and phospho-CHK1. Phospho-specific antibodies were quality controlled through ATR dependence of foci formation in mouse zygotes, and for γH2AX also in human zygotes. […] The appropriate secondary antibodies conjugated with Alexa Fluor 488, Alexa Fluor 555, CF 568, or Alexa Fluor 647 were diluted at 1:500-1:1000. Ethynyl deoxyuridine (EdU) labeling of zygotes and embryos was performed using the labeling kit (Thermo Fisher Scientific) as described by the manufacturer. 10 mM EdU was added to culture medium for 1 h at the indicated time points, and cells were harvested and fixed thereafter. 5-ethynyl uridine (EU) labeling was performed by incubating day3 cleavage stage embryos for 4 hours in Global total containing 0.2 mM EU.
(§4) Embryos were imaged with confocal microscopy using a Zeiss LSM (LSM 710) at a magnification of 63× and the Zeiss Zen software. Images were obtained using 488-, 543- and 633-nm lasers and bright-field microscopy. The number of confocal sections was adjusted to capture the entire nucleus or the entire embryo according to the experimental design as described above. Cell numbers and staining foci numbers were counted manually. Nuclei were identified by the presence of Hoechst33342. Foci were identified if at least 3× greater intensity than nuclear average, spherical in appearance, and overlapping with Hoechst33342 staining. Inner cell masses were identified by the presence of Oct4 within a blastocyst embryo. Active DNA replication was identified by the presence of EdU. DNA damage was identified by the detection of γH2AX and RPA foci within the nucleus. Mechanisms of DNA repair were identified through the detection of RPA S4/S8, RPA S33, Rad51 and 53BP1 foci within the nucleus.

[2] = tested on: human zygotes and parthenotes; test: timing of mitotic entry in human zygotes and parthenotes; details: for mitotic entry: human parthenotes
Experimental: as §1
Artificial activation of human MII oocytes was performed using two pulses of 2.7 kV/cm at 50 ms using ECFG21 (Nepagene) in fusion buffer consisting of 0.25 M d-sorbitol buffer containing 0.1 mM calcium acetate, 0.5 mM magnesium acetate, 0.5 mM HEPES, and 1 mg ml^−1 fatty-acid-free BSA as previously described (Tachibana et al., 2013). Thereafter, oocytes were incubated for 3.5-4 h in 10 mg/ml puromycin, followed by a wash step and following culture in Global total.

[3] = tested on: mouse 1-cell embryos; test: timing of mitotic entry in mouse 1-cell embryos; details: application in G2 phase, depending on the time point of application
Experimental: as §1, §2

[4] = tested on: mouse embryos; test: mouse preimplantation development and embryo quality
Experimental: as §1, §2, §3, §4

[5] = mice, aphidicolin incubation in G2 phase

C[C@@]1(CO)[C@H](O)CC[C@@]2(C)[C@H]1CC[C@H]1C[C@@H]3C[C@@]12CC[C@]3(O)CO [aphidicolin]
markers of DNA damage (γH2AX, Rpa32, Rpa32 phosphoS33) ([1]; 4-8 cell stage, 48 h post activation): increased | time to formation of phospho-RPA32, γH2AX and Rad51 foci after fork stalling ([1]; G2 arrested zygotes): 2 to 4 h | time to resolution of foci after release from the compound ([1]; G2 arrested zygotes): 1 to 2 h | RPA32-positive foci per haploid nucleus, average ([1]; mice, aphidicolin incubation): 4.5 per haploid nucleus | γH2AX foci positive for RPA32 ([1]; mice, aphidicolin incubation): Approximately 10% | mean γH2AX foci [1, 5]: 43 | γH2AX foci, range [1, 5]: 0-228 | mitotic entry ([2]; incubation at 14 h): prevented mitotic entry | mitotic entry ([2]; incubation at 15.5 h, compared with controls): allowed mitotic entry with a delay | mitotic entry timing ([2]; human, incubation at 18 h): no effects; also recorded: did not delay | mitotic entry [3]: inhibited | micronucleation ([4]; 48 h post activation, aphidicolin in G2): increased | cleaved embryos developed to the blastocyst stage, range ([4]; aphidicolin in G2 phase): 25%-87% | cleaved embryos developed to the blastocyst stage ([4]; aphidicolin in G2 phase, controls 92%): 72% | ICM cells marked by Pou5f1 ([4]; day 5, aphidicolin in G2): fewer | total cell number of blastocysts ([4]; day 5, aphidicolin in G2): reduced
